Results on 28 molecules are retold here after US20150191469A1, “COMPOUNDS AND METHODS FOR TREATING HIV” (priority 2012, published 2015).

Each structure is given as a SMILES string. Structures can show the parent of a compound that is named as a salt.

The test system of one assay is HIV. Description: MT4 assay: antiviral HIV activity (cell protection, cell titer glo readout at 96 hours). Conditions: Human immunodeficiency virus 1, MT4, 96 h, MT4 cells, cell titer glo readout at 96 hours, 10 point dose response; read-out: HIV MT4 Assay IC50. Type of assay: cell-based. The method in brief: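 MT-4 cells infected with HIV, with inhibition readout by CellTiter-Glo luminescence at 96 h relative to no-compound control. Cytotoxicity measured in parallel under the same conditions. IC50 from a 10-point, 3-4-fold dilution series spanning >1000-fold, fitted with a four-parameter logistic equation.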
On the technique in general: In ATP-based viability assays light output follows the ATP content of the culture.
Broadly, the IC50 is the concentration needed to halve the response being measured. Take `Cc1nc2c(cc(-c3ccnc(C(=O)N4CCN(S(C)(=O)=O)CC4)c3)n2C)c(-c2cc(F)c3c(c2C)CCCO3)c1[C@H](OC(C)(C)C)C(=O)O` (atropisomer, axis not shown) [Example 146]: the IC50 was 487 nM.
Regarding `Cc1nc2c(cc(-c3ccnc(C(=O)Nc4cnn(C)c4)c3)n2C)c(-c2cc(F)c3c(c2C)CCCO3)c1[C@H](OC(C)(C)C)C(=O)O` (atropisomer, axis not shown) [Example 147], the IC50 was found to be 45.3 nM.
Turning to `Cc1nc2c(cc(-c3ccnc(C(=O)Nc4ccnn4C)c3)n2C)c(-c2cc(F)c3c(c2C)CCCO3)c1[C@H](OC(C)(C)C)C(=O)O` (atropisomer, axis not shown) [Example 148], the IC50 came out at 40.1 nM.
As to `Cc1nc2c(cc(-c3ccnc(C(=O)NCCN4CCCC4=O)c3)n2C)c(-c2cc(F)c3c(c2C)CCCO3)c1[C@H](OC(C)(C)C)C(=O)O` (atropisomer, axis not shown) [Example 149], the IC50 came to 219 nM.
With `Cc1nc2c(cc(-c3ccnc(C(=O)NCc4c[nH]cn4)c3)n2C)c(-c2cc(F)c3c(c2C)CCCO3)c1[C@H](OC(C)(C)C)C(=O)O` (atropisomer, axis not shown) [Example 150], the IC50 was determined as 9360 nM.
Consider `Cc1nc2c(cc(-c3ccnc(C(=O)NCc4ccc(F)cc4)c3)n2C)c(-c2cc(F)c3c(c2C)CCCO3)c1[C@H](OC(C)(C)C)C(=O)O` (atropisomer, axis not shown) [Example 151], for which the IC50 was 43.6 nM.
Still for that read-out and setting: the figure for `Cc1nc2c(cc(-c3ccnc(C(=O)NC4CCCCC4)c3)n2C)c(-c2cc(F)c3c(c2C)CCCO3)c1[C@H](OC(C)(C)C)C(=O)O` (atropisomer, axis not shown) [Example 152] is 72.4 nM.
`Cc1nc2c(cc(-c3ccnc(C(=O)Nc4ccn(C)n4)c3)n2C)c(-c2cc(F)c3c(c2C)CCCO3)c1[C@H](OC(C)(C)C)C(=O)O` (atropisomer, axis not shown) [Example 153]: the IC50 came out at 44 nM.
With `Cc1nc2c(cc(-c3ccnc(C#CC(C)(C)N)c3)n2C)c(-c2cc(F)c3c(c2C)CCCO3)c1[C@H](OC(C)(C)C)C(=O)O` (atropisomer, axis not shown) [Example 155], the IC50 was determined as 81.9 nM.
Take `Cc1nc2c(cc(-c3ccnc(C#CC4(N)CCCCC4)c3)n2C)c(-c2cc(F)c3c(c2C)CCCO3)c1[C@H](OC(C)(C)C)C(=O)O` (atropisomer, axis not shown) [Example 156]: the IC50 came out at 39.8 nM.
As for `Cc1nc2c(cc(-c3ccnc(C#CCN4CCCC4)c3)n2C)c(-c2cc(F)c3c(c2C)CCCO3)c1[C@H](OC(C)(C)C)C(=O)O` (atropisomer, axis not shown) [Example 157], the IC50 is 30 nM.
For `Cc1nc2c(cc(-c3ccnc(C#CCN4CCOCC4)c3)n2C)c(-c2cc(F)c3c(c2C)CCCO3)c1[C@H](OC(C)(C)C)C(=O)O` (atropisomer, axis not shown) [Example 158], the half-maximal inhibitory concentration (IC50) was found to be 45 nM.
Still for that read-out and setting: under `Cc1nc2c(cc(-c3ccnc(C#CC4(O)CCCCC4)c3)n2C)c(-c2cc(F)c3c(c2C)CCCO3)c1[C@H](OC(C)(C)C)C(=O)O` (atropisomer, axis not shown) [Example 159] stands 27.9 nM.
In the case of `Cc1nc2c(cc(-c3ccnc(C#CCN4CCN(C)CC4)c3)n2C)c(-c2cc(F)c3c(c2C)CCCO3)c1[C@H](OC(C)(C)C)C(=O)O` (atropisomer, axis not shown) [Example 160], the IC50 was 150 nM.
`Cc1nc2c(cc(-c3ccnc(-c4ccc5c(cnn5C)c4)c3)n2C)c(-c2ccc3c(c2C)CCCO3)c1[C@H](OC(C)(C)C)C(=O)O` (atropisomer, axis not shown; (M)) [Example 1, (2S)(M)-2-(tert-butoxy)-2-(1,6-dimethyl-2-(2-(1-methyl-1H-indazol-5-yl)pyridin-4-yl)-4-(5-methylchroman-6-yl)-1H-pyrrolo[2,3-b]pyridin-5-yl)acetic acid]: the IC50 was 1.7 nM.
Take `Cc1nc2c(cc(-c3nc(N4CCN(C5CCOCC5)CC4)no3)n2C)c(-c2cc(F)c3c(c2C)CCCO3)c1[C@H](OC(C)(C)C)C(=O)O` (atropisomer, axis not shown; (M)) [Example 27, (2S)(M)-2-(tert-butoxy)-2-(4-(8-fluoro-5-methylchroman-6-yl)-1,6-dimethyl-2-(3-(4-(tetrahydro-2H-pyran-4-yl)piperazin-1-yl)-1,2,4-oxadiazol-5-yl)-1H-pyrrolo[2,3-b]pyridin-5-yl)acetic acid]: the IC50 was found to be 4.6 nM.
The same measure, in the same setting: under `Cc1nc2c(cc(-c3nnc(-c4ccc5c(cnn5C)c4)o3)n2C)c(-c2cc(F)c3c(c2C)CCCO3)c1[C@H](OC(C)(C)C)C(=O)O` (atropisomer, axis not shown; (M)) [Example 28, (2S)(M)-2-(tert-butoxy)-2-(4-(8-fluoro-5-methylchroman-6-yl)-1,6-dimethyl-2-(5-(1-methyl-1H-indazol-5-yl)-1,3,4-oxadiazol-2-yl)-1H-pyrrolo[2,3-b]pyridin-5-yl)acetic acid] stands 1.8 nM; under `Cc1nc2c(cc3n2CCCC3)c(-c2cc(F)c3c(c2C)CCCO3)c1[C@H](OC(C)(C)C)C(=O)O` (atropisomer, axis not shown; (M)) [Example 29, (2S)(M)-2-(tert-butoxy)-2-(4-(8-fluoro-5-methylchroman-6-yl)-2-methyl-6,7,8,9-tetrahydropyrido[3,2-b]indolizin-3-yl)acetic acid], 13.8 nM.
On the same count and under the same terms, under `Cc1nc2c(cc(-c3ccn(C4CN(C)C4)n3)n2C)c(-c2cc(F)c3c(c2C)CCCO3)c1[C@H](OC(C)(C)C)C(=O)O` (atropisomer, axis not shown; (M)) [Example 129, (2S)(M)-2-(tert-butoxy)-2-(-4-(8-fluoro-5-methylchroman-6-yl)-1,6-dimethyl-2-(1-(1-methylazetidin-3-yl)-1H-pyrazol-3-yl)-1H-pyrrolo[2,3-b]pyridin-5-yl)acetic acid] stands 45.2 nM; under `Cc1nc2c(cc(-c3ccnc(C(=O)N4CCN(c5ccccc5)CC4)c3)n2C)c(-c2cc(F)c3c(c2C)CCCO3)c1[C@H](OC(C)(C)C)C(=O)O` (atropisomer, axis not shown; (M)) [Example 145], 45.3 nM; under `Cc1nc2c(cc(-c3ccnc(C#Cc4cncn4C)c3)n2C)c(-c2cc(F)c3c(c2C)CCCO3)c1[C@H](OC(C)(C)C)C(=O)O` (atropisomer, axis not shown; (M)) [Example 154, (2S)(M)-2-(tert-butoxy)-2-(-4-(8-fluoro-5-methylchroman-6-yl)-1,6-dimethyl-2-(2-((1-methyl-1H-imidazol-5-yl)ethynyl)pyridin-4-yl)-1H-pyrrolo[2,3-b]pyridin-5-yl)acetic acid], 11 nM.
Same read-out and setting: the figure for `Cc1nc2c(cc(C(=S)N3CCC(c4ccccc4)CC3)n2C)c(-c2cc(F)c3c(c2C)CCCO3)c1[C@H](OC(C)(C)C)C(=O)O` (atropisomer, axis not shown; (M)) [Example 281, (2S)(M)-2-(tert-butoxy)-2-(-4-(8-fluoro-5-methylchroman-6-yl)-1,6-dimethyl-2-(4-phenylpiperidine-1-carbonothioyl)-1H-pyrrolo[2,3-b]pyridin-5-yl)acetic acid] is 38.3 nM; for `Cc1nc2c(cc(CCc3ccccc3)n2C)c(-c2cc(F)c3c(c2C)CCCO3)c1[C@H](OC(C)(C)C)C(=O)O` (atropisomer, axis not shown; (M)) [Example 282, (2S)(M)-2-(tert-butoxy)-2-(-4-(8-fluoro-5-methylchroman-6-yl)-1,6-dimethyl-2-phenethyl-1H-pyrrolo[2,3-b]pyridin-5-yl)acetic acid] it is 56.8 nM.
Consider `Cc1nc2c(cc(CN3CCCCC3)n2C)c(-c2cc(F)c3c(c2C)CCCO3)c1[C@H](OC(C)(C)C)C(=O)O` (atropisomer, axis not shown; (M)) [Example 288, (2S)(M)-2-(tert-butoxy)-2-(-4-(8-fluoro-5-methylchroman-6-yl)-1,6-dimethyl-2-(piperidin-1-ylmethyl)-1H-pyrrolo[2,3-b]pyridin-5-yl)acetic acid], for which the IC50 stood at 250 nM.
Still for that read-out and setting: the figure for `Cc1nc2c(cc(CCC(=O)NCc3ccc(F)cc3)n2C)c(-c2cc(F)c3c(c2C)CCCO3)c1[C@H](OC(C)(C)C)C(=O)O` (atropisomer, axis not shown; (M)) [Example 297, (2S)(M) 2-(tert-butoxy)-2-((R)-4-(8-fluoro-5-methylchroman-6-yl)-2-(3-((4-fluorobenzyl)amino)-3-oxopropyl)-1,6-dimethyl-1H-pyrrolo[2,3-b]pyridin-5-yl)acetic acid] is 130 nM; for `Cc1nc2c(cc(-c3nnc(N4CCN(C5CCOCC5)CC4)o3)n2C)c(-c2cc(F)c3c(c2C)CCCO3)c1[C@H](OC(C)(C)C)C(=O)O` (atropisomer, axis not shown; (M)) [Example 300, (2S)(M)-2-(tert-butoxy)-2-(-4-(8-fluoro-5-methylchroman-6-yl)-1,6-dimethyl-2-(5-(4-(tetrahydro-2H-pyran-4-yl)piperazin-1-yl)-1,3,4-oxadiazol-2-yl)-1H-pyrrolo[2,3-b]pyridin-5-yl)acetic acid] it is 10.4 nM.

The same assay, now with this note: Human immunodeficiency virus 1, MT4, 96 h, read-out: HIV MT4 Assay IC50.
`Cc1nc2c(cc(C(=O)N3CCN(C4CCCC4)CC3)n2C)c(-c2cc(F)c3c(c2C)CCCO3)c1[C@H](OC(C)(C)C)C(=O)O` (atropisomer, axis not shown; (M)) [Example 161, (2S)(M)-2-(tert-butoxy)-2-(2-(4-cyclopentylpiperazine-1-carbonyl)-4-(8-fluoro-5-methylchroman-6-yl)-1,6-dimethyl-1H-pyrrolo[2,3-b]pyridin-5-yl)acetic acid ditrifluoroacetic acid salt]: the IC50 amounted to 37.9 nM.

Staying with this assay, now noted: MT4 cells, cell titer glo readout at 96 hours, 10 point dose response; read-out: HIV MT4 Assay IC50.
With `Cc1nc2c(cc(-c3nc(N4CCN(C5CCOCC5)CC4)ns3)n2C)c(-c2cc(F)c3c(c2C)CCCO3)c1[C@H](OC(C)(C)C)C(=O)O` (atropisomer, axis not shown; (M)) [Example 26, (2S)(M)-2-(tert-butoxy)-2-(4-(8-fluoro-5-methylchroman-6-yl)-1,6-dimethyl-2-(3-(4-(tetrahydro-2H-pyran-4-yl)piperazin-1-yl)-1,2,4-thiadiazol-5-yl)-1H-pyrrolo[2,3-b]pyridin-5-yl)acetic acid], the IC50 amounted to 2.9 nM.
